Tests used:
[1] = system: Lck, Fyn, Zap70, LAT and Pyk2; test: Western blot of protein phosphorylation of T cell receptor downstream cascades in Jurkat cells; type: cell-based; details: 45 min
Description: FIGS. 8A-8D are western blot analyses showing effects of YIV-906 (FIG. 8A), single herbs (FIG. 8A), the fractions of YIV-906 (FIG. 8B), P (FIG. 8C), and S (FIG. 8D) on protein phosphorylation of T cell receptor signaling cascades including, Lck, Fyn, Zap70, LAT and Pyk2. […] All eluted fractions were dried and reconstituted with water to equivalent concentration at 100 mg/ml. Jurkat cells were treated with YIV-906 (FIG. 8A), single herbs (FIG. 8A), the fractions of YIV-906 (FIG. 8B), P (FIG. 8C), and S (FIG. 8D) at equivalent dose 320 ug/ml for 45 min. Western blot analysis was used to determine the protein phosphorylation using specific antibodies. GAPDH was used to normalize the protein loading.
FIGS. 9A-9B show chemical identification of fractions of P (FIG. 9A) and S (FIG. 9B) after C18 column fractionation and their impacts on protein phosphorylation for Lck, Zap70, Lat, Fyn/Src, Pyk2. Equivalent concentration, 10 mg/ml, was used for LC-MS analysis. Equivalent concentration, 320 ug/ml for 45 min, was used for treating Jurkat cells for western blotting analysis. Identified chemicals (putative), based on their mass and mass of their fragments, were listed under each fraction. Non-identified chemical was not listed in this figure. Fraction could induce phosphorylation of specific protein was indicted as red upward arrow.
FIG. 10 show effects of S and P compounds on protein phosphorylation of T cell receptor signaling cascades including, Lck, Fyn, Zap70, LAT and Pyk2. Jurkat cells were treated with S and P compounds for 45 min. Western blot analysis was used to determine the protein phosphorylation using specific antibodies.
Jurkat-PD1 cells 10^6/ml were placed in 24 well plate treated with YIV-906 or its components herbs for 45 minutes. After spinning down the cells at 1000 g centrifugation for 10 min, red blood cells were lysed with 1 ml BD pharm lyse on ice. Cells were collected at 1000 g centrifugation for 10 min. 2×10^6 cells were used for each staining sample. The cells were prepared with 2X protein loading buffer (Tris pH 6.8 1M, SDS 1%, glycerol, B-mercaptoethanol, bromophenol blue, distilled water). The samples were then heated to 95° C. for 5 minutes to denature the proteins prior to western blot. SDS polyacrylamide gel electrophoresis (10% Mini-Protean TGX™ Precast Protein Gels, BioRad) was used to separate proteins according to their electrophoretic mobility. The protein extractions were deposited in the wells of the gel, 10 μL per well. The migration was performed in a 1X running buffer (Tris/Glycine/SDS) at 180 V for 50 minutes. The transfer of the proteins was performed on a PVDF membrane in the transfer buffer (Tris-CAPS AX, methanol, SDS 10%, distilled water) at 75 V for 1 hour. The non-specific binding sites on the PVDF membrane were blocked with a blocking solution (3% milk powder and 1X TBS-T) for 30 minutes. Then, the PVDF membrane was incubated with the primary antibody against the proteins of interest overnight at 4° C. The information of primary antibodies is as follows: P-Lck-Y394 (Biolegend, #933101), P-Zap70-Y319 (Cell signaling, #2717), P-LAT-Y191 (Cell signaling, #3584) P-SRC (Fyn) Y416 (Cell, signaling, #6943), P-Pyk2-Y402 (Cell signaling, 3291), GAPDH (Cell Signaling, #5174). […] Image-J was used to quantify the total intensity of immunoreactive bands. […]

SHP2 = molecular target: T1, SHP2 (Homo sapiens, UniProt Q06124); test: SHP2 activity, p-Nitrophenyl Phosphate (pNPP) colorimetric assay; type: biochemical; details: 40 uM
T1 sequence (Q06124 1-593): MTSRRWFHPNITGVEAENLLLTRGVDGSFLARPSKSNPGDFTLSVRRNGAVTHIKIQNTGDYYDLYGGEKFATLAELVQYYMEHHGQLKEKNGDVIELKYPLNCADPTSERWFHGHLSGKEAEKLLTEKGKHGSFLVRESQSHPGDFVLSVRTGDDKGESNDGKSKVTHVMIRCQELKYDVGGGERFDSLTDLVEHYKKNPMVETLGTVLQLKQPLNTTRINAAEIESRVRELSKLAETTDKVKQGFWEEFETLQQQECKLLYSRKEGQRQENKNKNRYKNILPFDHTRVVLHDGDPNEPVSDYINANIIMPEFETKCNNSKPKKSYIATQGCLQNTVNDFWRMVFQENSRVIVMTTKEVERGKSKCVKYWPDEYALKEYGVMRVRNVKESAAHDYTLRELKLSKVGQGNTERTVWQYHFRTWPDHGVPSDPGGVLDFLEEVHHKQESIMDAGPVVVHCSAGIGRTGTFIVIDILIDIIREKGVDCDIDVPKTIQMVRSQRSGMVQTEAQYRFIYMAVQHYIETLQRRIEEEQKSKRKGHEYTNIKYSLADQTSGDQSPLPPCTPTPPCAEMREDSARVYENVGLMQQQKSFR

[2] = system: NFAT mediated transcriptional activity of Jurkat cells; test: NFAT luciferase reporter in Jurkat(-PD1) cells co-cultured with wild type Raji or Raji-PD-L1 cells without or with SEE; type: cell-based; details: for modulation effect on basal NFAT activity: absence of SEE, wild type Raji or PD-L1 over-expressed Raji cells; for inhibition on NFAT activity of Jurkat cells: presence of SEE; for modulation of basal NFAT activity: S compounds up to 40 uM; for inhibition of SEE triggered NFAT activity: at 20 to 40 uM, SEE 10 ng/ml
[3] = system: NFAT mediated transcriptional activity of Jurkat-PD1 TCRαβ knockout cells; test: NFAT luciferase reporter in TCRαβ knockout Jurkat-PD1 cells; type: cell-based
[4] = molecular target: CD19 naturally expressed on the cell surface of Raji cells (UniProt P15391); test: cell-based or functional assay
[5] = Jurkat-PD1 with wild type Raji or PD-L1 over-expressed Raji cells, without SEE

Chain of CD19 naturally expressed on the cell surface of Raji cells (P15391 20-556 limits assumed): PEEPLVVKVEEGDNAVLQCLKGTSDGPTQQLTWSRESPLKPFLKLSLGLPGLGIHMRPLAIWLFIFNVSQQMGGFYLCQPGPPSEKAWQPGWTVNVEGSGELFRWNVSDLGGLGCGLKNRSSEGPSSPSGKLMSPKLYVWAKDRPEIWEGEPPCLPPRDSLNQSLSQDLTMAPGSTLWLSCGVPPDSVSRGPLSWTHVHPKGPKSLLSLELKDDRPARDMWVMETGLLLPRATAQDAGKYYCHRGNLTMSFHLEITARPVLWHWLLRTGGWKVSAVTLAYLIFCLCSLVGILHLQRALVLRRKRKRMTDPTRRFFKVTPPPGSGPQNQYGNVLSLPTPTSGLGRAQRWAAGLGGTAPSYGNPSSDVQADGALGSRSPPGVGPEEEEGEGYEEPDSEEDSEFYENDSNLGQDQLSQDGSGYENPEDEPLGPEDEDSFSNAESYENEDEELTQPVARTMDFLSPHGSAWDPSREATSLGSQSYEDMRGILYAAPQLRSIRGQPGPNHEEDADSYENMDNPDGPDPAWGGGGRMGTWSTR

## C[C@]12C[C@@H](O)[C@@H]3C[C@@]1(O[C@@H]1O[C@H](CO)[C@@H](O)[C@H](O)[C@H]1O)[C@@]3(COC(=O)c1ccccc1)C(=O)O2 [Albiforin]
[1]
  inducing P-Zap70-Y319 and P-Pyk2-Y402: some effect

## O=C(O)[C@H]1O[C@@H](Oc2cc3oc(-c4ccccc4)cc(=O)c3c(O)c2O)[C@H](O)[C@@H](O)[C@@H]1O [Baicalin]
SHP2
  inhibitory effect on SHP2, S compounds: showed inhibitory effect on SHP2
[1]; 40 uM
  induction effect on P-Zap70-Y319, P-SRC (Fyn)-Y416 and P-Pyk2-Y402: some induction effect

## CC1(C)[C@@H](O[C@H]2O[C@H](C(=O)O)[C@@H](O)[C@H](O)[C@H]2O[C@@H]2O[C@H](C(=O)O)[C@@H](O)[C@H](O)[C@H]2O)CC[C@]2(C)[C@H]3C(=O)C=C4[C@@H]5C[C@@](C)(C(=O)O)CC[C@]5(C)CC[C@@]4(C)[C@]3(C)CC[C@@H]12 [Glycyrrhizic acid]
SHP2
  inhibitory effect on SHP2, G compounds: relatively higher inhibitory effects on SHP2 than other G compounds

## O=C(/C=C/c1ccc(O)cc1)c1ccc(O)cc1O [Isoliquiritigenin]
[2]; 10 uM
  modulation effect on basal NFAT activity: some modulation effect
[2]; 40 uM
  inhibition on NFAT activity of Jurkat cells: showed inhibition on NFAT activity

## COc1ccc2c(c1O)-c1c(O)c(OC)cc3c1[C@H](C2)[N+](C)(C)CC3 [Magnoflorine]
[2]; Z compound up to 40 uM
  inhibition on NFAT activity of Jurkat cells: showed inhibition on NFAT activity

## C[C@@]12C[C@@]3(O)O[C@@H](O1)[C@]1(COC(=O)c4ccccc4)[C@H]3C[C@@]12O[C@@H]1O[C@H](CO)[C@@H](O)[C@H](O)[C@H]1O [Paeoniforin]
[1]
  inducing P-Zap70-Y319 and P-Pyk2-Y402: some effect

## O=c1cc(-c2ccccc2)oc2cc(O)c(O)c(O)c12 [baicalein]
[3]
  impact on NFAT activity, Jurkat-PD1 versus Jurkat-PD1 TCRαβ KO cells: very similar impact on NFAT activity
SHP2
  inhibitory effect on SHP2, S compounds: showed inhibitory effect on SHP2
[2]; [5]
  modulation of basal NFAT activity: could modulate the basal NFAT activity
[2]
  inhibition of SEE triggered NFAT activity: could inhibit SEE triggered NFAT activity
[1]; 40 uM
  induction of protein phosphorylation of all examined proteins (Lck, Zap70, LAT, Fyn, Pyk2): could strongly induce protein phosphorylation of all examined proteins

## COc1c(CC=C(C)C)c(O)cc2oc(=O)c(-c3ccc(O)cc3O)cc12 [glycycoumarin]
[2]; 10 uM
  modulation effect on basal NFAT activity: some modulation effect

## CC1(C)[C@@H](O)CC[C@]2(C)[C@H]3C(=O)C=C4[C@@H]5C[C@@](C)(C(=O)O)CC[C@]5(C)CC[C@@]4(C)[C@]3(C)CC[C@@H]12 [glycyrrhetinic acid]
SHP2
  inhibitory effect on SHP2, G compounds: relatively higher inhibitory effects on SHP2 than other G compounds

## C=CC(C)(C)c1cc(/C=C/C(=O)c2ccc(O)cc2)c(OC)cc1O [licochalcone A]
[2]; 40 uM
  inhibition on NFAT activity of Jurkat cells: showed inhibition on NFAT activity
[2]; 10-20 uM
  modulation effect on basal NFAT activity: some modulation effect

## O=C1C[C@@H](c2ccc(O)cc2)Oc2cc(O)ccc21 [liquiritigenin]
[2]; 40 uM
  modulation effect on basal NFAT activity: some modulation effect

## O=C1C[C@@H](c2ccc(O[C@@H]3O[C@H](CO)[C@@H](O)[C@H](O)[C@H]3O)cc2)Oc2cc(O)ccc21 [liquiritin]
[2]; 20 uM
  modulation effect on basal NFAT activity: some modulation effect

## COc1c(O[C@@H]2O[C@H](C(=O)O)[C@@H](O)[C@H](O)[C@H]2O)cc2oc(-c3ccccc3)cc(=O)c2c1O [oroxylin A 7-O-beta-D-glucuronide]
[3]
  impact on NFAT activity, Jurkat-PD1 versus Jurkat-PD1 TCRαβ KO cells: very similar impact on NFAT activity
SHP2
  inhibitory effect on SHP2, S compounds: showed inhibitory effect on SHP2
[2]; [5]
  modulation of basal NFAT activity: could modulate the basal NFAT activity
[2]; basal, without SEE, Jurkat-PD1 with wild type Raji or PD-L1 over-expressed Raji cells
  dose required to achieve 2-fold activity of NFAT: 40 µM
[1]; 40 uM
  induction effect on P-Zap70-Y319, P-SRC (Fyn)-Y416 and P-Pyk2-Y402: some induction effect

## COc1c(O)cc2oc(-c3ccccc3)cc(=O)c2c1O [oroxylin A]
[3]
  impact on NFAT activity, Jurkat-PD1 versus Jurkat-PD1 TCRαβ KO cells: very similar impact on NFAT activity
SHP2
  inhibitory effect on SHP2, S compounds: showed inhibitory effect on SHP2
[2]; [5]
  modulation of basal NFAT activity: could modulate the basal NFAT activity
[2]
  inhibition of SEE triggered NFAT activity: could inhibit SEE triggered NFAT activity

## COc1c(O[C@@H]2O[C@H](C(=O)O)[C@@H](O)[C@H](O)[C@H]2O)cc(O)c2c(=O)cc(-c3ccccc3)oc12 [wogonoside]
SHP2
  inhibitory effect on SHP2, S compounds: showed inhibitory effect on SHP2

## Anti-PD1: antibody produced from Nivolumab clone; InVivoSIM anti-human PD-1 (Nivolumab Biosimilar)
[2]; Raji-PD-L1 cells, SEE 10 ng/ml or 30 ng/ml, YIV-906 160 ug/ml, nivolumab biosimilar 18 ug/ml
  rescue of depressed NFAT activity (due to the interaction of PD1 and PD-L1) in Jurkat-PD1 cells: rescued the depressed NFAT activity

## chimeric antigen receptor (CAR-CD19-CD3zeta) on Jurkat-PD1 NFAT-luc cells
[4]
  NFAT activity of Jurkat-PD1 CAR-CD19 cells co-cultured with Raji (NFAT luciferase reporter): 40 fold
